pIC50: −log10 of the molar value. Where “and” joins values, the source holds several entries; their conditions need not be identical. Equal values may be shown once.
Legend:
[1] = target: T1, recombinant human SYK360-635 (Homo sapiens, UniProt P43405); test: Determination of IC50 of Spleen Tyrosine Kinase (SYK) inhibition, 33P ATP filtration assay; type: biochemical; settings: SYK aa 360-635 0.5 nM; ATP 20 μM, peptide 5 μM, 0.1% BSA; read-out: SYK_ENZYME_FILTRATION/v1, BSA
T1 construct: made in house

[2] = target: T2, JAK3: Recombinant human kinase domain (Homo sapiens, UniProt P52333); test: Determination of IC50 of Janus Kinase (JAK) inhibition, radioactive end-point 33P-ATP assay, JAK3; type: biochemical; settings: ATP 1.5 uM, peptide 50 uM, 20 minutes, read-out: JAK3-INHIB-DR/v1~NO ADDITIVE~Enzyme_Conc = 100
T2 construct: JAK3: Recombinant human kinase domain from Millipore (Cat #14-629) or prepared; purchased Millipore 14-629
T2 sequence (P52333 822-1111 limits assumed): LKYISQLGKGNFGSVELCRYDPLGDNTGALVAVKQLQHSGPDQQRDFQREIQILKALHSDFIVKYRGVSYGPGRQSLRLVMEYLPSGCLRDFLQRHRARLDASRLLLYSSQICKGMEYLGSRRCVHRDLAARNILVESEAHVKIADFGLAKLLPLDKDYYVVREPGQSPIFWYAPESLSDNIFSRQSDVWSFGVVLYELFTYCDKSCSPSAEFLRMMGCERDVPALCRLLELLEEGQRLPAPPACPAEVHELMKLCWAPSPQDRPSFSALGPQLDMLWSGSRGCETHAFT
Method: Determination of IC50 of Janus Kinase (JAK) Inhibition:
Assay conditions used are described below: • Assay Buffer: JAK Kinase Buffer: 50 mM Hepes [pH 7.2], 10 mM MgCl2, 1 mM DTT, 1 mg/ml BSA. The assay was carried out in this buffer. • Assay Format The kinase activity of all three JAK kinases was measured using a radioactive, end-point assay and with trace amounts of ^33P-ATP. The assays were carried out in 96-well polypropylene plates. Experimental Method:
All concentrations were final in the reaction mixture and all incubations were carried at room temperature. […] Final concentration of DMSO in the reaction was 10%. • 2) Compounds were preincubated with enzyme (0.5 nM JAK3 (commercially available), 0.2 nM JAK3 (prepared), 1 nM JAK2, 5 nM JAK1) for 10 minutes. • 3) Reactions were initiated by the addition of a cocktail of the two substrates (ATP and peptide premixed in the JAK Kinase Buffer). […] JAK1 assay was carried out at an ATP concentration of 10 uM and a peptide concentration of 50 uM. • 4) The duration of the assay for JAK2 and JAK3 is 20 minutes. JAK1 assay was carried out for 40 minutes. With all three enzymes, reactions were terminated by the addition of 0.5M EDTA to a final concentration of 100 mM. • 5) 25 ul of terminated reactions were transferred to 150 ul of a 7.5% (v/v) slurry of streptavidin-coated sepharose beads in MgCl2- and CaCl2-free 1× Phosphate Buffered Saline containing 50 mM of EDTA in 96-well, 1.2 um MultiScreen-BV filter plates. • 6) After a 30-minute incubation, the beads were washed under vacuum with the following buffers: • a. 3 to 4 washes with 200 ul of 2M NaCl. • b. 3 to 4 washes with 200 ul of 2M NaCl plus 1% (v/v) phosphoric acid. • c. 1 wash with water. • 7) Washed plates were dried in a 60° C. oven for between 1 to 2 hours. • 8) 70 ul of Microscint 20 scintillation fluid was added to each well of filter plates and after at least 30 minutes of incubation, radioactive counts were measured in a Perkinelmer microplate scintillation counter.

SMILES | pIC50 [1] | pIC50 [2] | IC50 [1]
CC(NC(=O)c1c[nH]c2ncc(-c3nn(C)c4cc(F)ccc34)nc12)c1cocn1 (stereo not shown) [Example I-52, 2-(6-Fluoro-1-methyl-1H-indazol-3-yl)-5H-pyrrolo[2,3-b]pyrazine-7-carboxylic acid (1-oxazol-4-yl-ethyl)-amide] | 7.71 | 8.05 | –
Cn1nc(-c2cnc3[nH]cc(C(=O)N[C@@H]4CCC[C@H](O)C4)c3n2)c2ccc(Cl)cc21 (relative stereo) [Example I-149, 2-(6-Chloro-1-methyl-1H-indazol-3-yl)-5H-pyrrolo[2,3-b]pyrazine-7-carboxylic acid (cis-3-hydroxy-cyclohexyl)-amide] | 7.28 | 7.99 | –
C[C@@H](NC(=O)c1c[nH]c2ncc(-c3nn(C)c4cc(F)ccc34)nc12)C(C)(F)F [Example I-56, 2-(6-Fluoro-1-methyl-1H-indazol-3-yl)-5H-pyrrolo[2,3-b]pyrazine-7-carboxylic acid ((R)-2,2-difluoro-1-methyl-propyl)-amide] | 8.14 | 7.93 | –
Cn1nc(-c2cnc3[nH]cc(C(=O)N[C@H]4CC[C@H](N)CC4)c3n2)c2ccc(Cl)cc21 [Example I-146, 2-(6-Chloro-1-methyl-1H-indazol-3-yl)-5H-pyrrolo[2,3-b]pyrazine-7-carboxylic acid (trans-4-amino-cyclohexyl)-amide] | 8.06 | 7.74 | –
COC[C@H](C)NC(=O)c1c[nH]c2ncc(-c3nc(Cl)n4cc(F)ccc34)nc12 [Example I-39, 2-(3-Chloro-6-fluoro-imidazo[1,5-a]pyridin-1-yl)-5H-pyrrolo[2,3-b]pyrazine-7-carboxylic acid ((S)-2-methoxy-1-methyl-ethyl)-amide] | 6.62 | 8.24 | –

Further lines, results first:

pIC50 [1] | pIC50 [2] | IC50 [1] | SMILES
7.08 | 6.13 | – | Cn1nc(-c2cnc3[nH]cc(C(=O)NC4(CO)CCOCC4)c3n2)c2cc(OC(F)F)ccc21 [Example I-286, 2-(5-Difluoromethoxy-1-methyl-1H-indazol-3-yl)-5H-pyrrolo[2,3-b]pyrazine-7-carboxylic acid (4-hydroxymethyl-tetrahydro-pyran-4-yl)-amide]
5.05 | < 6.00 | – | CC(Cc1ccccn1)NC(=O)c1c[nH]c2ncc(-c3nn(CCN4CCCC4)c4cc(F)ccc34)nc12 (stereo not shown) [Example I-250, 2-[6-Fluoro-1-(2-pyrrolidin-1-yl-ethyl)-1H-indazol-3-yl]-5H-pyrrolo[2,3-b]pyrazine-7-carboxylic acid (1-methyl-2-pyridin-2-yl-ethyl)-amide]
7.02 | 8.54 | – | COC[C@H](C)NC(=O)c1c[nH]c2ncc(-c3nn(CCN(C)C)c4cc(Cl)ccc34)nc12 [Example I-234, 2-[6-Chloro-1-(2-dimethylamino-ethyl)-1H-indazol-3-yl]-5H-pyrrolo[2,3-b]pyrazine-7-carboxylic acid ((S)-2-methoxy-1-methyl-ethyl)-amide]
7.50 | 7.90 | – | CC(C)NC(=O)c1c[nH]c2ncc(-c3nn(C)c4c3CCC4)nc12 [Example I-282, 2-(1-Methyl-1,4,5,6-tetrahydro-cyclopentapyrazol-3-yl)-5H-pyrrolo[2,3-b]pyrazine-7-carboxylic acid isopropylamide]
– | 7.20 | < 1 nM (2×) and 1.6 nM | COc1ccc2c(-c3cnc4[nH]cc(C(=O)NC(C)(C)C)c4n3)nn(C)c2c1 [Example I-366, 2-(6-Methoxy-1-methyl-1H-indazol-3-yl)-5H-pyrrolo[2,3-b]pyrazine-7-carboxylic acid tert-butylamide]
8.33 | 7.74 | – | CC(C)(C)NC(=O)c1c[nH]c2ncc(-c3cccc4[nH]ncc34)nc12 [Example I-399, 2-(1H-Indazol-4-yl)-5H-pyrrolo[2,3-b]pyrazine-7-carboxylic acid tert-butylamide]
